Data published in US9963467B2, “Boronic acid derivatives and therapeutic uses thereof” (Rempex Pharmaceuticals, Inc., priority 2014, dated 2018).

Assays:
KP1005 (CTX-M-14) [1] = assay: Aztreonam potentiation (MPC@4), KP1005; assay type: cell-based; conditions: BLI with aztreonam at 4 μg/mL
KP1009 (CTX-M-15) [2] = assay: organism not typed; assay type: cell-based
ec308 (SHV-5) [3] = assay: Aztreonam potentiation (MPC@4), ec308; assay type: cell-based; conditions: BLI with aztreonam at 4 μg/mL
KP1010 (SHV-12) [4] = assay: Aztreonam potentiation (MPC@4), KP1010; assay type: cell-based
ec302 (TEM-10) [5] = assay: Aztreonam potentiation (MPC@4), ec302; assay type: cell-based; conditions: BLI with aztreonam at 4 μg/mL
KP1004 (KPC-2) [6] = assay: Aztreonam potentiation (MPC@4), KP1004; assay type: cell-based; conditions: BLI with aztreonam at 4 μg/mL
ECL1002 [7] = assay: Aztreonam potentiation (MPC@4), ECL1002; assay type: cell-based; conditions: BLI with aztreonam at 4 μg/mL
KP1005 (CTX-M-14) [8] = assay: Tigemonam potentiation (MPC@4), KP1005; assay type: cell-based; conditions: BLI with tigemonam at 4 μg/mL
KP1009 (CTX-M-15) [9] = assay: Tigemonam potentiation (MPC@4), KP1009; assay type: cell-based; conditions: BLI with tigemonam at 4 μg/mL
ec308 (SHV-5) [10] = assay: Tigemonam potentiation (MPC@4), ec308; assay type: cell-based
KP1010 (SHV-12) [11] = assay: Tigemonam potentiation (MPC@4), KP1010; assay type: cell-based
ec302 (TEM-10) [12] = assay: Tigemonam potentiation (MPC@4), ec302; assay type: cell-based
ECL1002 [13] = assay: Tigemonam potentiation (MPC@4), ECL1002; assay type: cell-based; conditions: BLI with tigemonam at 4 μg/mL
EC1010 (CMY-6) [14] = assay: Tigemonam potentiation (MPC@4), EC1010; assay type: cell-based; conditions: BLI with tigemonam at 4 μg/mL
CTX-M-14 = CTX-M-14 (Escherichia coli, UniProt Q9L5C7); assay: Ki, nitrocefin cleavage by purified enzyme, CTX-M-14; assay type: biochemical; conditions: nitrocefin reporter substrate; read-out: Ki (CTX-M-14, NCF)
In short: (§1)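 Steps: enzyme plus inhibitor dilutions in reaction buffer; 10 min at room temperature; add nitrocefin; read absorbance at 490 nm each 10 sec for 10 min.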

SHV-12 = SHV-12 (Klebsiella pneumoniae, UniProt P0AD64, E235K/G234S/L31Q); assay: Ki, nitrocefin cleavage by purified enzyme, SHV-12; assay type: biochemical; conditions: nitrocefin reporter substrate; read-out: Ki (SHV-12, NCF)
In short: as §1

KPC-2 = KPC-2 (Klebsiella pneumoniae, UniProt Q9F663); assay: Ki, nitrocefin cleavage by purified enzyme, KPC-2; assay type: biochemical; conditions: nitrocefin reporter substrate; read-out: Ki (KPC-2, NCF)
In short: as §1

P99 = P99 (Enterobacter cloacae, UniProt P05364); assay: Ki, nitrocefin cleavage by purified enzyme, P99; assay type: biochemical; conditions: nitrocefin reporter substrate; read-out: Ki (P99, NCF)
In short: as §1

Pa AmpC = Pa AmpC (Pseudomonas aeruginosa, UniProt P24735); assay: Ki, nitrocefin cleavage by purified enzyme, Pa AmpC; assay type: biochemical; conditions: nitrocefin reporter substrate; read-out: Ki (Pa AmpC, NCF)
In short: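 Absorbance at 490 nm, recorded every 10 sec for 10 min after nitrocefin addition, reported substrate cleavage. Inhibitor at various concentrations had first been incubated with purified enzyme for 10 min at room temperature, and Ki values were determined from these profiles.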

OXA-48 = OXA-48 (Klebsiella pneumoniae, UniProt Q6XEC0); assay: Ki, nitrocefin cleavage by purified enzyme, OXA-48; assay type: biochemical; conditions: nitrocefin reporter substrate; read-out: Ki (OXA-48, NCF)
In short: as §1

KP1004 (KPC-2) [15] = assay: Biapenem potentiation (MPC@1), KP1004; conditions: BLI with biapenem at 1 μg/mL
KP1086 (OXA-48) = assay: Biapenem potentiation (MPC@1), KP1086; conditions: BLI with biapenem at 1 μg/mL
PAM1032/KPC-2 = assay: Biapenem potentiation MPC64, PAM1032/KPC-2 (efflux proficient); assay type: cell-based, Pseudomonas aeruginosa; conditions: BLI to decrease MIC of biapenem 64-fold; MexAB-OprM overexpressed
Experimental: Efflux of BLIs from Pseudomonas aeruginosa by the MexAB-OprM efflux pump was also evaluated. […] Due to expression of KPC-2 both strains became resistant to biapenem. […] Potency of BLIs to potentiate biapenem in these strains was determined. […] The ratio of MPC64 values for each BLI in PAM1032/KPC-2 (efflux proficient) and PAM1154/KPC-2 (efflux deficient) was determined to generate the Efflux Index (EI).

EC1010 (CMY-6) [16] = assay: organism not typed; assay type: cell-based

Sequence of CTX-M-14 (Q9L5C7 29-291): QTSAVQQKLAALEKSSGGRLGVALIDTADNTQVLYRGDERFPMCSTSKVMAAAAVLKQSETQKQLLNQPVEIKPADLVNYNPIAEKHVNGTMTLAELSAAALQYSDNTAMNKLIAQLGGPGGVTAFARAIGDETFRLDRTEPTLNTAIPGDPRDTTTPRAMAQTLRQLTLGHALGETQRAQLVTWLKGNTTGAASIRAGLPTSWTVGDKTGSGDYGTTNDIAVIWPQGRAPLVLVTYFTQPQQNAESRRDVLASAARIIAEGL
Sequence of Pa AmpC (P24735 27-397): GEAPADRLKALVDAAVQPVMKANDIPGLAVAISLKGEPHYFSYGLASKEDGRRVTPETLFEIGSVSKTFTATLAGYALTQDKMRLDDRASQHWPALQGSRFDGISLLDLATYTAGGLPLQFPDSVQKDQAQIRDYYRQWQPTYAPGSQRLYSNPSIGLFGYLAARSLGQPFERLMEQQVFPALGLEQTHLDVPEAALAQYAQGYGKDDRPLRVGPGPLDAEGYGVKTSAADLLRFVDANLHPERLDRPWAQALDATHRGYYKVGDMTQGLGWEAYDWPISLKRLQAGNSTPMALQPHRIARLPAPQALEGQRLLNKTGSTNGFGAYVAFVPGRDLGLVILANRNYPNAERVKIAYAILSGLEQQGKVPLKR
Sequence of OXA-48 (Q6XEC0 23-265, looked up, species assumed): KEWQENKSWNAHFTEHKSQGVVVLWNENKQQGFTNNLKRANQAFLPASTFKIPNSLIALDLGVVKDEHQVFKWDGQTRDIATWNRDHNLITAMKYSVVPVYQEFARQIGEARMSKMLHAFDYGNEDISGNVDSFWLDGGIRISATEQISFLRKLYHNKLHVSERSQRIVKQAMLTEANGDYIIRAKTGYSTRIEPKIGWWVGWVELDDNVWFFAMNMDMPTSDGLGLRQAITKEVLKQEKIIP
Sequence of P99 (P05364 21-381): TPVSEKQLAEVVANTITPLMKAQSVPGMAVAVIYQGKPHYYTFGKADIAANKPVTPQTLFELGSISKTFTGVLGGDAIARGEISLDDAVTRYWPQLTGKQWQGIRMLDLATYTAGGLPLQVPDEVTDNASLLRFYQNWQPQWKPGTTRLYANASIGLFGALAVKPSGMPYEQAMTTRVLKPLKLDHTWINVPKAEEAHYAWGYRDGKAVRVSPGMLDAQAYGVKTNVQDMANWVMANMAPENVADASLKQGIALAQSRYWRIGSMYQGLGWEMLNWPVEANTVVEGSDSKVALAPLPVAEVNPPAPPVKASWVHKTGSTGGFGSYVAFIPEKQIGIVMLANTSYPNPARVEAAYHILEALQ
Sequence of SHV-12 (P0AD64 22-286 L31Q/G234S/E235K): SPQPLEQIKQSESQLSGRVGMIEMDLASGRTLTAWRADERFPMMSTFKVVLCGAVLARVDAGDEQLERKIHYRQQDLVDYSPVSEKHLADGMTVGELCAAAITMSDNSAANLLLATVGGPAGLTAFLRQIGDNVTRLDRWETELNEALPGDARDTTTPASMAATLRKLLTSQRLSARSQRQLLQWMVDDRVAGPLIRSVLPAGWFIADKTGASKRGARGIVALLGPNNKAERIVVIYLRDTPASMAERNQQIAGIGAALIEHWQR
Sequence of KPC-2 (Q9F663 25-293, looked up, species assumed): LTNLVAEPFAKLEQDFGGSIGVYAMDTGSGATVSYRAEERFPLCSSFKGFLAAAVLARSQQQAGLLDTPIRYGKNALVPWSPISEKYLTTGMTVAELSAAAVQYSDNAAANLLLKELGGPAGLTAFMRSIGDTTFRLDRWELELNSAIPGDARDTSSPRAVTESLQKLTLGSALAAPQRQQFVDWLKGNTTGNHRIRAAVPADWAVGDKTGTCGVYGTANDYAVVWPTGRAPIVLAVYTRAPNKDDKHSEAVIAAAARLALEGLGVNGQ

Row | SMILES | AZT MPC4 CTX-M-14 KP1005 (KP1005 (CTX-M-14) [1]) | AZT MPC4 CTX-M-15 KP1009 (KP1009 (CTX-M-15) [2]) | AZT MPC4 SHV-5 ec308 (ec308 (SHV-5) [3]) | AZT MPC4 SHV-12 KP1010 (KP1010 (SHV-12) [4]) | AZT MPC4 TEM-10 ec302 (ec302 (TEM-10) [5]) | AZT MPC4 ECL1002 (ECL1002 [7]) | TIG MPC4 CTX-M-14 KP1005 (KP1005 (CTX-M-14) [8]) | TIG MPC4 CTX-M-15 KP1009 (KP1009 (CTX-M-15) [9]) | TIG MPC4 SHV-5 ec308 (ec308 (SHV-5) [10]) | TIG MPC4 SHV-12 KP1010 (KP1010 (SHV-12) [11]) | TIG MPC4 TEM-10 ec302 (ec302 (TEM-10) [12]) | TIG MPC4 ECL1002 (ECL1002 [13]) | TIG MPC4 CMY-6 EC1010 (EC1010 (CMY-6) [14]) | Ki (CTX-M-14) | Ki (P99) | Ki (Pa AmpC) | BPM MPC1 KP1004 KPC-2 (KP1004 (KPC-2) [15]) | BPM MPC1 OXA-48 KP1086 (KP1086 (OXA-48)) | PAM1032/KPC-2 Biapenem MPC64 (PAM1032/KPC-2) | AZT MPC4 CMY-6 EC1010 (EC1010 (CMY-6) [16]) | further results
1 | O=C(O)CC(=O)N[C@H]1Cc2cccc(C(=O)O)c2OB1O [D, reference compound] | Y (MIC of 1 μg/mL to 10 μg/mL) | Y (key: X: MIC of less than 1 ng/mL; Y: MIC of 1 μg/mL to 10 μg/mL; Z: MIC of greater than 10 μg/mL) | Y (MIC of 1 μg/mL to 10 μg/mL) | Y (key: X: MIC of less than 1 ng/mL; Y: MIC of 1 μg/mL to 10 μg/mL; Z: MIC of greater than 10 μg/mL) | Z (MIC of greater than 10 μg/mL) | Y (MIC of 1 μg/mL to 10 μg/mL) | Z (MIC of greater than 10 μg/mL) | Y (MIC of 1 μg/mL to 10 μg/mL) | Y (key: X: MIC of less than 1 ng/mL; Y: MIC of 1 μg/mL to 10 μg/mL; Z: MIC of greater than 10 μg/mL) | Y (key: X: MIC of less than 1 ng/mL; Y: MIC of 1 μg/mL to 10 μg/mL; Z: MIC of greater than 10 μg/mL) | Z (key: X: MIC of less than 1 ng/mL; Y: MIC of 1 μg/mL to 10 μg/mL; Z: MIC of greater than 10 μg/mL) | X (MIC of less than 1 μg/mL) | X (MIC of less than 1 μg/mL) | < 1 nM | > 10 nM | > 10 nM | X (MIC of less than 1 μg/mL) | Y (MIC of 1 μg/mL to 10 μg/mL) | – | – | AZT MPC4 KPC-2 KP1004 (KP1004 (KPC-2) [6]): Y (MIC of 1 μg/mL to 10 μg/mL); Ki (SHV-12): 1 to 10 nM; Ki (KPC-2): > 10 nM; Ki (OXA-48): < 1 nM
2 | O=C(CSC1CNC1)N[C@H]1Cc2cccc(C(=O)O)c2OB1O [B, reference compound] | – | – | – | – | Y (MIC of 1 μg/mL to 10 μg/mL) | – | Y (MIC of 1 μg/mL to 10 μg/mL) | – | Y (key: X: MIC of less than 1 ng/mL; Y: MIC of 1 μg/mL to 10 μg/mL; Z: MIC of greater than 10 μg/mL) | – | Z (key: X: MIC of less than 1 ng/mL; Y: MIC of 1 μg/mL to 10 μg/mL; Z: MIC of greater than 10 μg/mL) | – | X (MIC of less than 1 μg/mL) | – | – | 1 to 10 nM | – | – | 2.5 | – | –
3 | O=C(CSC(F)F)N[C@H]1Cc2cccc(C(=O)O)c2OB1O [C, reference compound] | X (MIC of less than 1 ng/mL) | – | X (MIC of less than 1 ng/mL) | X (key: X: MIC of less than 1 ng/mL; Y: MIC of 1 μg/mL to 10 μg/mL; Z: MIC of greater than 10 μg/mL) | – | Y (MIC of 1 μg/mL to 10 μg/mL) | X (MIC of less than 1 μg/mL) | X (MIC of less than 1 μg/mL) | X (key: X: MIC of less than 1 μg/mL; Y: MIC of 1 μg/mL to 10 μg/mL; Z: MIC of greater than 10 μg/mL) | X (key: X: MIC of less than 1 μg/mL; Y: MIC of 1 μg/mL to 10 μg/mL; Z: MIC of greater than 10 μg/mL) | Y (key: X: MIC of less than 1 ng/mL; Y: MIC of 1 μg/mL to 10 μg/mL; Z: MIC of greater than 10 μg/mL) | Y (MIC of 1 μg/mL to 10 μg/mL) | – | – | 1 to 10 nM | < 1 nM | X (MIC of less than 1 μg/mL) | Y (MIC of 1 μg/mL to 10 μg/mL) | 80 | X (key: X: MIC of less than 1 ng/mL; Y: MIC of 1 μg/mL to 10 μg/mL; Z: MIC of greater than 10 μg/mL) | –
4 | NC(=O)CC(=O)N[C@H]1Cc2cccc(C(=O)O)c2OB1O [E, reference compound] | X (MIC of less than 1 ng/mL) | X (key: X: MIC of less than 1 ng/mL; Y: MIC of 1 μg/mL to 10 μg/mL; Z: MIC of greater than 10 μg/mL) | X (MIC of less than 1 ng/mL) | X (key: X: MIC of less than 1 ng/mL; Y: MIC of 1 μg/mL to 10 μg/mL; Z: MIC of greater than 10 μg/mL) | – | X (MIC of less than 1 ng/mL) | Y (MIC of 1 μg/mL to 10 μg/mL) | Y (MIC of 1 μg/mL to 10 μg/mL) | Y (key: X: MIC of less than 1 ng/mL; Y: MIC of 1 μg/mL to 10 μg/mL; Z: MIC of greater than 10 μg/mL) | X (key: X: MIC of less than 1 μg/mL; Y: MIC of 1 μg/mL to 10 μg/mL; Z: MIC of greater than 10 μg/mL) | Z (key: X: MIC of less than 1 ng/mL; Y: MIC of 1 μg/mL to 10 μg/mL; Z: MIC of greater than 10 μg/mL) | X (MIC of less than 1 μg/mL) | – | < 1 nM | – | – | X (MIC of less than 1 μg/mL) | Y (MIC of 1 μg/mL to 10 μg/mL) | – | X (key: X: MIC of less than 1 ng/mL; Y: MIC of 1 μg/mL to 10 μg/mL; Z: MIC of greater than 10 μg/mL) | Ki (OXA-48): < 1 nM
5 | CNC(=O)CC(=O)N[C@H]1Cc2cccc(C(=O)O)c2OB1O [G, reference compound] | Y (MIC of 1 μg/mL to 10 μg/mL) | – | – | – | Y (MIC of 1 μg/mL to 10 μg/mL) | – | Y (MIC of 1 μg/mL to 10 μg/mL) | – | Y (key: X: MIC of less than 1 ng/mL; Y: MIC of 1 μg/mL to 10 μg/mL; Z: MIC of greater than 10 μg/mL) | – | Z (key: X: MIC of less than 1 ng/mL; Y: MIC of 1 μg/mL to 10 μg/mL; Z: MIC of greater than 10 μg/mL) | – | X (MIC of less than 1 μg/mL) | < 1 nM | – | – | – | – | 40 | – | –
6 | Nc1nnc(C(=O)N[C@H]2Cc3cccc(C(=O)O)c3OB2O)s1 [H, reference compound] | Y (MIC of 1 μg/mL to 10 μg/mL) | – | X (MIC of less than 1 ng/mL) | X (key: X: MIC of less than 1 ng/mL; Y: MIC of 1 μg/mL to 10 μg/mL; Z: MIC of greater than 10 μg/mL) | X (MIC of less than 1 ng/mL) | – | Y (MIC of 1 μg/mL to 10 μg/mL) | X (MIC of less than 1 μg/mL) | X (key: X: MIC of less than 1 μg/mL; Y: MIC of 1 μg/mL to 10 μg/mL; Z: MIC of greater than 10 μg/mL) | X (key: X: MIC of less than 1 μg/mL; Y: MIC of 1 μg/mL to 10 μg/mL; Z: MIC of greater than 10 μg/mL) | Y (key: X: MIC of less than 1 ng/mL; Y: MIC of 1 μg/mL to 10 μg/mL; Z: MIC of greater than 10 μg/mL) | X (MIC of less than 1 μg/mL) | – | – | – | < 1 nM | X (MIC of less than 1 μg/mL) | Y (MIC of 1 μg/mL to 10 μg/mL) | 80 | X (key: X: MIC of less than 1 ng/mL; Y: MIC of 1 μg/mL to 10 μg/mL; Z: MIC of greater than 10 μg/mL) | –
